Source: patent US20220323406A1, “METHODS AND COMPOSITIONS FOR DIFFERENTIATING STEM CELLS” (Massachusetts Institute of Technology, priority 2019, published 2022)

Legend:
ENR+CD organoids = assay: Primary screen: ATP (CellTiter-Glo 3D, CTG) cell number/viability, 2.5-D 384-well ENR+CD organoids; settings: primary screen; for Z.CTG: standard z score;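 for all read-outs here: compounds given at plating and again on day 3 over a 6-day differentiation from ENR+CV stem-cell-enriched precursors, ATP measured on day 6, plate median as control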
[1] = test system: ENR+CD organoids (ISC to Paneth cell differentiation); assay: Primary screen: basal (non-stimulated) lysozyme secretion LYZ.NS, 2.5-D 384-well ENR+CD organoid differentiation; assay type: cell-based, mouse; settings: primary screen; for Z.LYZ.NS: standard z score
Description: (§1) High-throughput screening.

[2] = test system: ENR+CD organoids (ISC to Paneth cell differentiation); assay: Primary screen: CCh-stimulated lysozyme secretion LYZ.S, 2.5-D 384-well ENR+CD organoid differentiation; assay type: cell-based, mouse; settings: primary screen
Description: as §1

[3] = dose 0.40 uM, FC vs plate median
[4] = dose 2.00 uM, FC vs plate median
[5] = dose 10.00 uM, FC vs plate median
[6] = dose 0.08 uM, FC vs plate median
[7] = dose 0.08 uM, FC relative to plate median
[8] = dose 0.40 uM, FC relative to plate median
[9] = dose 2.00 uM, FC relative to plate median
[10] = dose 10.00 uM, FC relative to plate median

CN(Cc1cnc2nc(N)nc(N)c2n1)c1ccc(C(=O)N[C@@H](CCC(=O)O)C(=O)O)cc1 [Methotrexate] was tested, and the “Dose.FC.CTG (log2 fold change)” value (ENR+CD organoids; dose 0.08 uM) was −0.615, the Dose.FC.CTG (ENR+CD organoids; [3]) was −0.722 log2 fold change and the Dose.FC.CTG (ENR+CD organoids; [4]) was −0.701 log2 fold change. The Dose.FC.CTG (ENR+CD organoids; [5]) was −0.642 log2 fold change, the “Dose.FC.LYZ.NS (log2 fold change)” value ([1]; dose 0.08 uM) was −0.097 and the “Z.LYZ.NS (standard z score)” value ([1]; dose 0.08 uM) was −0.843. It also gave a Z.LYZ.NS ([1]; dose 0.40 uM) of −0.332, a Z.LYZ.NS ([1]; dose 2.00 uM) of −1.132 and a Z.LYZ.NS ([1]; dose 10.00 uM) of −0.658. It also gave a Dose.FC.LYZ.NS [1, 3] of −0.038 log2 fold change, a Dose.FC.LYZ.NS [1, 4] of −0.130 log2 fold change and a Dose.FC.LYZ.NS [1, 5] of −0.076 log2 fold change. For the same compound, the “Dose.FC.LYZ.S (log2 fold change)” value ([2]; dose 0.08 uM) was −0.159, the Dose.FC.LYZ.S [2, 3] was −0.129 log2 fold change and the Dose.FC.LYZ.S [2, 4] was −0.177 log2 fold change. The Dose.FC.LYZ.S [2, 5] was −0.156 log2 fold change.

CCCCCCCCCCCCCCCCn1cc[n+](Cc2ccccc2)c1C.[I-] [NH125] gave a Z.CTG (ENR+CD organoids; dose 0.08 uM) of −0.829, a Z.CTG (ENR+CD organoids; dose 0.40 uM) of −1.213 and a Z.CTG (ENR+CD organoids; dose 2.00 uM) of −2.641. The Z.CTG (ENR+CD organoids; dose 10.00 uM) was −4.268, the Dose.FC.CTG (ENR+CD organoids; [6]) was −0.347 log2 fold change and the Dose.FC.CTG (ENR+CD organoids; [3]) was −0.508 log2 fold change. For the same compound, the Dose.FC.CTG (ENR+CD organoids; [4]) was −1.106 log2 fold change, the Dose.FC.CTG (ENR+CD organoids; [5]) was −1.787 log2 fold change and the Z.LYZ.NS ([1]; dose 0.08 uM) was −0.301. It also gave a Z.LYZ.NS ([1]; dose 0.40 uM) of −1.634, a Z.LYZ.NS ([1]; dose 2.00 uM) of −1.904 and a Z.LYZ.NS ([1]; dose 10.00 uM) of −2.293. For the same compound, the Dose.FC.LYZ.NS [1, 6] was −0.035 log2 fold change, the Dose.FC.LYZ.NS [1, 3] was −0.188 log2 fold change and the Dose.FC.LYZ.NS [1, 4] was −0.219 log2 fold change. It also gave a Dose.FC.LYZ.NS [1, 5] of −0.263 log2 fold change, a Dose.FC.LYZ.S [2, 6] of −0.114 log2 fold change and a Dose.FC.LYZ.S [2, 3] of −0.237 log2 fold change. It also gave a Dose.FC.LYZ.S [2, 4] of −0.358 log2 fold change and a Dose.FC.LYZ.S [2, 5] of −0.374 log2 fold change.

Work on O=c1ncccn1[C@@H]1O[C@H](CO)[C@@H](O)[C@H]1O [Zebularine] yielded a Dose.FC.CTG (ENR+CD organoids; dose 0.08 uM) of 0.035 log2 fold change, a Dose.FC.CTG (ENR+CD organoids; dose 0.40 uM) of 0.000 log2 fold change and a Dose.FC.CTG (ENR+CD organoids; dose 2.00 uM) of −0.089 log2 fold change. For the same compound, the Dose.FC.CTG (ENR+CD organoids; dose 10.00 uM) was −0.167 log2 fold change, the Dose.FC.LYZ.NS ([1]; dose 0.08 uM) was 0.026 log2 fold change and the “Z.LYZ.NS (standard z score)” value ([1]; dose 0.08 uM) was 0.223. For the same compound, the Dose.FC.LYZ.NS ([1]; dose 0.40 uM) was 0.009 log2 fold change, the “Z.LYZ.NS (standard z score)” value ([1]; dose 0.40 uM) was 0.075 and the Dose.FC.LYZ.NS ([1]; dose 2.00 uM) was 0.095 log2 fold change. For the same compound, the “Z.LYZ.NS (standard z score)” value ([1]; dose 2.00 uM) was 0.828, the Dose.FC.LYZ.NS ([1]; dose 10.00 uM) was 0.086 log2 fold change and the “Z.LYZ.NS (standard z score)” value ([1]; dose 10.00 uM) was 0.749. It also gave a Dose.FC.LYZ.S ([2]; dose 0.08 uM) of 0.092 log2 fold change, a Dose.FC.LYZ.S ([2]; dose 0.40 uM) of 0.077 log2 fold change and a Dose.FC.LYZ.S ([2]; dose 2.00 uM) of 0.051 log2 fold change. The Dose.FC.LYZ.S ([2]; dose 10.00 uM) was 0.102 log2 fold change.

In the case of O=C(NC(Cc1cc(=O)[nH]c2ccccc12)C(=O)O)c1ccc(Cl)cc1 (stereo not drawn) [Rebamipide], the Dose.FC.CTG (ENR+CD organoids; [7]) is reported as −0.256 log2 fold change, the Dose.FC.CTG (ENR+CD organoids; [8]) is reported as −0.510 log2 fold change and the Dose.FC.CTG (ENR+CD organoids; [9]) is reported as −0.203 log2 fold change. The Dose.FC.CTG (ENR+CD organoids; [10]) was −0.281 log2 fold change, the Dose.FC.LYZ.NS [1, 7] was 0.096 log2 fold change and the Z.LYZ.NS ([1]; dose 0.08 uM) was 0.832. It also gave a Dose.FC.LYZ.NS [1, 8] of −0.091 log2 fold change, a Z.LYZ.NS ([1]; dose 0.40 uM) of −0.793 and a Dose.FC.LYZ.NS [1, 9] of −0.090 log2 fold change. For the same compound, the Z.LYZ.NS ([1]; dose 2.00 uM) was −0.780, the Dose.FC.LYZ.NS [1, 10] was −0.089 log2 fold change and the Z.LYZ.NS ([1]; dose 10.00 uM) was −0.773. It also gave a Dose.FC.LYZ.S [2, 7] of −0.014 log2 fold change, a Dose.FC.LYZ.S [2, 8] of 0.014 log2 fold change and a Dose.FC.LYZ.S [2, 9] of −0.106 log2 fold change. It also gave a Dose.FC.LYZ.S [2, 10] of −0.063 log2 fold change.

For Oc1ccc2ccccc2c1SSc1c(O)ccc2ccccc12 [IPA-3], the “Dose.FC.CTG (log2 fold change)” value (ENR+CD organoids; dose 0.08 uM) was 0.219, the “Z.CTG (standard z score)” value (ENR+CD organoids; dose 0.08 uM) was 0.524 and the “Dose.FC.CTG (log2 fold change)” value (ENR+CD organoids; dose 0.40 uM) was −0.332. For the same compound, the “Z.CTG (standard z score)” value (ENR+CD organoids; dose 0.40 uM) was −0.793, the “Dose.FC.CTG (log2 fold change)” value (ENR+CD organoids; dose 2.00 uM) was −0.084 and the “Z.CTG (standard z score)” value (ENR+CD organoids; dose 2.00 uM) was −0.202. For the same compound, the “Dose.FC.CTG (log2 fold change)” value (ENR+CD organoids; dose 10.00 uM) was −0.054, the “Z.CTG (standard z score)” value (ENR+CD organoids; dose 10.00 uM) was −0.128 and the “Dose.FC.LYZ.NS (log2 fold change)” value ([1]; dose 0.08 uM) was 0.004. For the same compound, the “Z.LYZ.NS (standard z score)” value ([1]; dose 0.08 uM) was 0.031, the “Dose.FC.LYZ.NS (log2 fold change)” value ([1]; dose 0.40 uM) was 0.003 and the “Z.LYZ.NS (standard z score)” value ([1]; dose 0.40 uM) was 0.028. For the same compound, the “Dose.FC.LYZ.NS (log2 fold change)” value ([1]; dose 2.00 uM) was −0.001, the “Z.LYZ.NS (standard z score)” value ([1]; dose 2.00 uM) was −0.010 and the “Dose.FC.LYZ.NS (log2 fold change)” value ([1]; dose 10.00 uM) was −0.021. For the same compound, the “Z.LYZ.NS (standard z score)” value ([1]; dose 10.00 uM) was −0.186, the “Dose.FC.LYZ.S (log2 fold change)” value ([2]; dose 0.08 uM) was 0.064 and the “Dose.FC.LYZ.S (log2 fold change)” value ([2]; dose 0.40 uM) was −0.031. The “Dose.FC.LYZ.S (log2 fold change)” value ([2]; dose 2.00 uM) was 0.067 and the “Dose.FC.LYZ.S (log2 fold change)” value ([2]; dose 10.00 uM) was −0.054.

For N#CSc1cc(SC#N)c(N)nc1N [PR-619], the Dose.FC.CTG (ENR+CD organoids; [7]) was 0.054 log2 fold change, the Z.CTG (ENR+CD organoids; dose 0.08 uM) was 0.130 and the Dose.FC.CTG (ENR+CD organoids; [8]) was 0.111 log2 fold change. It also gave a Z.CTG (ENR+CD organoids; dose 0.40 uM) of 0.266, a Dose.FC.CTG (ENR+CD organoids; [9]) of 0.022 log2 fold change and a Z.CTG (ENR+CD organoids; dose 2.00 uM) of 0.053. It also gave a Dose.FC.CTG (ENR+CD organoids; [10]) of −0.320 log2 fold change, a Z.CTG (ENR+CD organoids; dose 10.00 uM) of −0.764 and a Dose.FC.LYZ.NS [1, 7] of 0.100 log2 fold change. For the same compound, the Z.LYZ.NS ([1]; dose 0.08 uM) was 0.872, the Dose.FC.LYZ.NS [1, 8] was 0.051 log2 fold change and the Z.LYZ.NS ([1]; dose 0.40 uM) was 0.448. For the same compound, the Dose.FC.LYZ.NS [1, 9] was 0.057 log2 fold change, the Z.LYZ.NS ([1]; dose 2.00 uM) was 0.495 and the Dose.FC.LYZ.NS [1, 10] was −0.194 log2 fold change. For the same compound, the Z.LYZ.NS ([1]; dose 10.00 uM) was −1.687, the Dose.FC.LYZ.S [2, 7] was 0.122 log2 fold change and the Dose.FC.LYZ.S [2, 8] was 0.047 log2 fold change. It also gave a Dose.FC.LYZ.S [2, 9] of 0.081 log2 fold change and a Dose.FC.LYZ.S [2, 10] of −0.193 log2 fold change.
